What was measured:
Type in all cases: in vivo
Echinochloa crus-galli [1] = assay: Herbicidal pre-emergence action (greenhouse pots), ECHCG; details: 1280 g/ha, visual scoring after about 3 weeks vs untreated controls
Outline: (§1)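 Pre-emergence soil-surface spray at 1280 g/ha of WP- or EC-formulated compound with 0.5% additive and 600 L/ha water. Assessment after about 3 weeks in the greenhouse, as visual percent activity where 100% means plants died.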

Matricaria inodora [2] = assay: Herbicidal post-emergence action (greenhouse pots), MATIN; details: 1280 g/ha, visual rating about 3 weeks after treatment vs untreated controls
Text: (§2) In the examples and tables below, the following abbreviations are used: • Undesired Plants/Weeds: • ABUTH: Abutilon theophrasti • AGSTE: Agrostis tenuis • AMARE Amaranthus retroflexus • ECHCG: Echinochloa crus-galli • LOLRI: Lolium rigidum • MATIN: Matricaria inodora • POAAN: Poa annua • SETVI: Setaria viridis • STEME: Stellaria media A. Herbicidal Early Post-Emergence Action Seeds of mono- and dicotyledonous weed plants were placed in plastic pots in sandy loam soil (doubly sown with in each case one species of mono- or dicotyledonous weed plants per pot), covered with soil and cultivated in a greenhouse under controlled growth conditions. 2 to 3 weeks after sowing, the test plants were treated at the one-leaf stage. The compounds of the invention, formulated in the form of wettable powders (WP) or as emulsion concentrates (EC), were applied onto the green parts of the plants as aqueous suspension or emulsion with addition of 0.5% additive at a water application rate of 600 liters per hectare (converted). After the test plants had been kept in the greenhouse under optimum growth conditions for about 3 weeks, the activity of the preparations was rated visually in comparison to untreated controls. For example, 100% activity=the plants have died, 0% activity=like untreated control plants. Tables B1-B8 below show the effects of selected compounds of the general formula (I) according to Table 1 above on various harmful plants and an application rate corresponding to 1280 g/ha, which were obtained by the experimental procedure mentioned above.

Matricaria inodora [3] = assay: Herbicidal pre-emergence action (greenhouse pots), MATIN; details: 1280 g/ha, visual scoring after about 3 weeks vs untreated controls
Outline: as §1

Abutilon theophrasti [4] = assay: Herbicidal post-emergence action (greenhouse pots), ABUTH; details: 1280 g/ha, visual rating about 3 weeks after treatment vs untreated controls
Outline: (§3)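 Activity is a visual percentage score (0% = like untreated controls, 100% = plants died) taken about 3 weeks after treatment. Plants grown in sandy loam under greenhouse conditions received 1280 g/ha onto green parts at the one-leaf stage, formulated as WP or EC with 0.5% additive.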

Stellaria media [5] = assay: Herbicidal post-emergence action (greenhouse pots), STEME; details: 1280 g/ha, visual rating about 3 weeks after treatment vs untreated controls
Outline: as §3

Stellaria media [6] = assay: Herbicidal pre-emergence action (greenhouse pots), STEME; details: 1280 g/ha, visual scoring after about 3 weeks vs untreated controls
Outline: as §1

Poa annua [7] = assay: Herbicidal pre-emergence action (greenhouse pots), POAAN; details: 1280 g/ha, visual scoring after about 3 weeks vs untreated controls
Outline: as §1

Amaranthus retroflexus [8] = assay: Herbicidal post-emergence action (greenhouse pots), AMARE; details: 1280 g/ha, visual rating about 3 weeks after treatment vs untreated controls
Outline: as §3

Agrostis tenuis = assay: Herbicidal early post-emergence action (96-well microtiter plates), AGSTE; details: 1900 g/ha, scored 9 to 12 days after treatment, 100% = plants have died, 0% = like untreated control plants
Outline: (§4)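 Weed seeds grown in quartz sand in 96-well microtiter plates in a climate chamber and treated at the cotyledon stage, 5 to 7 days after sowing, with EC formulations at 2200 L/ha water and a rate equivalent to 1900 g/ha. Visual scoring after 9 to 12 days against untreated controls (0% = control, 100% = dead).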

Poa annua [9] = assay: Herbicidal post-emergence action (greenhouse pots), POAAN; details: 1280 g/ha, visual rating about 3 weeks after treatment vs untreated controls
Text: as §2

Echinochloa crus-galli [10] = assay: Herbicidal post-emergence action (greenhouse pots), ECHCG; details: 1280 g/ha, rated after about 3 weeks, 100% = plants have died, 0% = like untreated control plants
Text: as §2

Setaria viridis [11] = assay: Herbicidal pre-emergence action (greenhouse pots), SETVI; details: 1280 g/ha, visual scoring after about 3 weeks vs untreated controls
Outline: as §1

Amaranthus retroflexus [12] = assay: Herbicidal pre-emergence action (greenhouse pots), AMARE; details: 1280 g/ha, visual scoring after about 3 weeks vs untreated controls
Outline: as §1

Poa annua [13] = assay: Herbicidal early post-emergence action (96-well microtiter plates), POAAN; details: 1900 g/ha, scored 9 to 12 days after treatment, 100% = plants have died, 0% = like untreated control plants
Outline: as §4

Lolium rigidum [14] = assay: Herbicidal pre-emergence action (greenhouse pots), LOLRI; details: 1280 g/ha, visual scoring after about 3 weeks vs untreated controls
Text: (§5) In the examples and tables below, the following abbreviations are used: • Undesired Plants/Weeds: • ABUTH: Abutilon theophrasti • AGSTE: Agrostis tenuis • AMARE Amaranthus retroflexus • ECHCG: Echinochloa crus-galli • LOLRI: Lolium rigidum • MATIN: Matricaria inodora • POAAN: Poa annua • SETVI: Setaria viridis • STEME: Stellaria media A. Herbicidal Early Post-Emergence Action Seeds of mono- and dicotyledonous weed plants were placed in plastic pots in sandy loam soil (doubly sown with one species each of mono- or dicotyledonous weed plants per pot) and covered with soil. The compounds of the invention, formulated in the form of wettable powders (WP) or as emulsion concentrates (EC), were then applied onto the surface of the covering soil as aqueous suspension or emulsion with addition of 0.5% additive at a water application rate of 600 liters per hectare (converted). After the treatment, the pots were placed in a greenhouse and kept under good growth conditions for the test plants. After about 3 weeks, the effect of the preparations was scored visually in comparison with untreated controls as percentages. For example, 100% activity=the plants have died, 0% activity=like untreated control plants. Tables C1-C8 below show the effects of selected compounds of the general formula (I) according to Table 1 above on various harmful plants and an application rate corresponding to 1280 g/ha, which were obtained by the experimental procedure mentioned above.

Abutilon theophrasti [15] = assay: Herbicidal pre-emergence action (greenhouse pots), ABUTH; details: 1280 g/ha, visual scoring after about 3 weeks vs untreated controls
Text: as §5

Setaria viridis [16] = assay: Herbicidal post-emergence action (greenhouse pots), SETVI; details: 1280 g/ha, rated after about 3 weeks, 100% = plants have died, 0% = like untreated control plants
Text: as §2

Lolium rigidum [17] = assay: Herbicidal post-emergence action (greenhouse pots), LOLRI; details: 1280 g/ha, rated after about 3 weeks, 100% = plants have died, 0% = like untreated control plants
Text: as §2

Compound | herbicidal activity ECHCG (Echinochloa crus-galli [1]) [%] | herbicidal activity MATIN (Matricaria inodora [2]) [%] | herbicidal activity MATIN (Matricaria inodora [3]) [%] | herbicidal activity ABUTH (Abutilon theophrasti [4]) [%] | herbicidal activity STEME (Stellaria media [5]) [%] | herbicidal activity STEME (Stellaria media [6]) [%] | herbicidal activity POAAN (Poa annua [7]) [%] | herbicidal activity AMARE (Amaranthus retroflexus [8]) [%] | AGSTE (herbicidal activity, scored visually in comparison to untreated controls) (Agrostis tenuis) [%] | herbicidal activity POAAN (Poa annua [9]) [%] | ECHCG (herbicidal activity, rated visually in comparison to untreated controls) (Echinochloa crus-galli [10]) [%] | herbicidal activity SETVI (Setaria viridis [11]) [%] | herbicidal activity AMARE (Amaranthus retroflexus [12]) [%] | POAAN (herbicidal activity, scored visually in comparison to untreated controls) (Poa annua [13]) [%] | herbicidal activity LOLRI (Lolium rigidum [14]) [%] | herbicidal activity ABUTH (Abutilon theophrasti [15]) [%] | SETVI (herbicidal activity, rated visually in comparison to untreated controls) (Setaria viridis [16]) [%] | LOLRI (herbicidal activity, rated visually in comparison to untreated controls) (Lolium rigidum [17]) [%]
N#Cc1cccc(Nc2ncc(F)cn2)c1Oc1ccc(F)c(F)c1F [Example 1-374] | 100 | 100 | 100 | 100 | 100 | 100 | 100 | 100 | 100 | 100 | 100 | 100 | 100 | 100 |  |  |  | 
CCc1cnc(Nc2cccc(C#N)c2Oc2ccc(F)cc2)nc1 [Example 1-310] |  | 100 |  |  | 90 |  |  |  | 80 |  |  |  |  |  |  |  |  | 
N#Cc1cccc(Nc2ncc(F)cn2)c1Oc1cc(F)c(F)cc1F [Example 1-375] | 100 |  | 100 | 90 | 100 | 100 | 100 | 100 | 100 | 100 |  | 100 | 100 | 100 | 90 | 100 |  | 
N#Cc1cccc(Nc2ncc(F)cn2)c1Oc1ccc(Cl)nc1 [Example 3-54] | 100 |  | 100 | 100 | 90 | 100 | 100 | 100 | 100 | 100 |  | 100 | 100 | 100 | 100 | 100 | 90 | 
N#Cc1cccc(Nc2ncccn2)c1Oc1ccc(F)cc1 [Example 1-248] | 100 |  | 100 | 100 | 100 | 100 | 100 | 100 | 100 | 100 | 100 | 100 | 100 | 100 | 100 | 100 |  | 
Fc1ccc(Oc2c(Cl)cccc2Nc2ncc(Cl)cn2)cc1 [Example 1-235] | 90 | 80 | 100 | 100 | 100 | 100 | 100 | 100 | 100 | 100 | 100 | 100 | 100 | 100 |  |  |  | 
N#Cc1cccc(Nc2ncc(F)cn2)c1Oc1ccc(Cl)cc1 [Example 1-269] | 90 |  | 100 | 90 | 100 | 100 | 100 | 100 | 80 | 90 | 90 | 100 | 100 | 100 | 90 | 90 | 90 | 
Clc1cnc(Nc2ccccc2Oc2ccccc2)nc1 [Example 1-336] |  | 100 |  |  | 100 | 100 |  |  | 100 |  |  |  |  | 100 |  |  |  | 
Fc1ccc(Oc2c(F)cccc2Nc2ncc(Cl)cn2)cc1 [Example 1-204] | 100 |  | 90 | 100 | 100 |  | 100 |  | 100 | 100 | 100 | 100 | 100 | 100 |  |  | 100 | 90
N#Cc1cccc(Nc2ncc(Cl)cc2F)c1Oc1ccc(F)cc1 [Example 1-139] |  | 100 |  |  |  |  |  |  | 100 | 100 |  |  |  | 80 |  |  |  | 
N#Cc1cccc(Nc2ncc([N+](=O)[O-])cn2)c1Oc1ccc(F)cc1 [Example 1-306] |  | 100 | 90 |  | 100 | 100 |  |  | 100 |  |  | 100 | 100 | 80 |  |  |  | 

From patent US12415786B2, “Substituted 2-heteroarylaminobenzenes and the salts thereof and their use as herbicidal agents” (Bayer Aktiengesellschaft, priority 2019, dated 2025)
